From patent US20250236589A1, “THERAPEUTIC PHENETHYLAMINE COMPOSITIONS AND METHODS OF USE” (Cybin IRL Limited, priority 2022, published 2025)
Like-named read-outs stand apart in the source and are kept apart here.

What was measured:
human 5-HT2B receptor = human 5-HT2B receptor (Homo sapiens (Human), UniProt P41595); assay: 5-HT2B functional assay, IP1 (IPOne); assay type: cell-based; settings: for Emax: IP1 assay, relative to 5-HT
Muscarinic M1 (h) = Muscarinic M1 (h) (Homo sapiens (Human), UniProt P11229); assay: Off-target screen, radioligand displacement at 10 μM; assay type: binding; settings: antagonist radioligand
Muscarinic M4 (h) = Muscarinic M4 (h) (Homo sapiens (Human), UniProt P08173); assay: as above; assay type: binding; settings: antagonist radioligand
Muscarinic M5 (h) = Muscarinic M5 (h) (Homo sapiens (Human), UniProt P08912); assay: as above; assay type: binding; settings: antagonist radioligand
[1] = system: Na+ channel (site 2) (rat cortex); assay: as above; assay type: binding; settings: antagonist radioligand
Dopamine D1 (h) = Dopamine D1 (h) (Homo sapiens (Human), UniProt P21728); assay: as above; assay type: binding
Adrenergic β2 (h) = Adrenergic β2 (h) (Homo sapiens (Human), UniProt P07550); assay: as above; assay type: binding; settings: antagonist radioligand
Histamine H1 (h) = Histamine H1 (h) (Homo sapiens (Human), UniProt P35367); assay: as above; assay type: binding
5-HT3 (h) = 5-HT3 (h) (Homo sapiens (Human), UniProt P46098); assay: as above; settings: antagonist, read-out: binding at 10 μM
Adenosine A3 (h) = Adenosine A3 (h) (Homo sapiens (Human), UniProt P0DMS8); assay: as above; settings: read-out: binding at 10 μM
α1 (non-selective) (r) = assay: as above; assay type: binding, rat
[2] = system: BZD (central) (rat cortex); assay: as above; assay type: binding
B2 (h) = B2 (h) (Homo sapiens (Human), UniProt P30411); assay: as above; settings: read-out: binding at 10 μM
[3] = biological target: Calcitonin Gene-Related Peptide CGRP1 (h) (Homo sapiens (Human), UniProt Q16602); assay: as above; settings: read-out: binding at 10 μM
Cannabinoid CB1 (h) = Cannabinoid CB1 (h) (Homo sapiens (Human), UniProt P21554); assay: as above; assay type: binding
[4] = biological target: Cholecystokinin CCK1 (CCKA) (h) (Homo sapiens (Human), UniProt P32238); assay: as above; settings: read-out: binding at 10 μM
D5 (h) = D5 (h) (Homo sapiens (Human), UniProt P21918); assay: as above; settings: read-out: binding at 10 μM
Galanin GAL1 (h) = Galanin GAL1 (h) (Homo sapiens (Human), UniProt P47211); assay: as above; settings: read-out: binding at 10 μM
[5] = biological target: CXCR2 (Interleukin-8B) (h) (Homo sapiens (Human), UniProt P25025); assay: as above; settings: read-out: binding at 10 μM
Histamine H2 (h) = Histamine H2 (h) (Homo sapiens (Human), UniProt P25021); assay: as above; settings: read-out: binding at 10 μM
Melatonin MT1 (h) = Melatonin MT1 (h) (Homo sapiens (Human), UniProt P48039); assay: as above; settings: read-out: binding at 10 μM
Tachykinin NK1 (h) = Tachykinin NK1 (h) (Homo sapiens (Human), UniProt P25103); assay: as above; settings: read-out: binding at 10 μM
Tachykinin NK2 (h) = Tachykinin NK2 (h) (Homo sapiens (Human), UniProt P21452); assay: as above; settings: read-out: binding at 10 μM
Neuropeptide Y Y1 (h) = Neuropeptide Y Y1 (h) (Homo sapiens (Human), UniProt P25929); assay: as above; settings: read-out: binding at 10 μM
Prostaglandin EP4 (h) = Prostaglandin EP4 (h) (Homo sapiens (Human), UniProt P35408); assay: as above; settings: read-out: binding at 10 μM
[6] = biological target: Prostacyclin IP (PGI2) (h) (Homo sapiens (Human), UniProt P43119); assay: as above; settings: read-out: binding at 10 μM
[7] = system: Somatostatin SST (non-selective) (m); assay: as above; assay type: binding, mouse
Vasopressin V1a (h) = Vasopressin V1a (h) (Homo sapiens (Human), UniProt P37288); assay: as above; settings: read-out: binding at 10 μM
[8] = biological target: norepinephrine transporter (h) (Homo sapiens (Human), UniProt P23975); assay: as above; settings: read-out: binding at 10 μM
dopamine transporter (h) = dopamine transporter (h) (Homo sapiens (Human), UniProt Q01959); assay: as above; settings: read-out: binding at 10 μM
[9] = antagonist radioligand, read-out: inhibition at 10 μM
[10] = read-out: inhibition of radioligand bound at 10 μM

Chain of human 5-HT2B receptor (P41595 whole entry, looked up): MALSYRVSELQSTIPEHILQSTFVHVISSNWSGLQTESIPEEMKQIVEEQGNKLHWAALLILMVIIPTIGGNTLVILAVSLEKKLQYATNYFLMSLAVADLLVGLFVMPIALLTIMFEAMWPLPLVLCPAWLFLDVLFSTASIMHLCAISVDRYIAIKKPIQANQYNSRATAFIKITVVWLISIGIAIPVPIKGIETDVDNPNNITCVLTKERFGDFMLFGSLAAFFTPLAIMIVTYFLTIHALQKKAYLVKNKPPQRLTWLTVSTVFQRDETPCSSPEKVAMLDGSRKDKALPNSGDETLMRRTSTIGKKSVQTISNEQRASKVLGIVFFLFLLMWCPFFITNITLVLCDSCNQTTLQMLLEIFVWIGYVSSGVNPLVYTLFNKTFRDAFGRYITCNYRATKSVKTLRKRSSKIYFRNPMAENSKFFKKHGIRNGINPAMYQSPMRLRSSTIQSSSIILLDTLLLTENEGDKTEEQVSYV
Chain of Adrenergic β2 (h) (P07550 whole entry, looked up): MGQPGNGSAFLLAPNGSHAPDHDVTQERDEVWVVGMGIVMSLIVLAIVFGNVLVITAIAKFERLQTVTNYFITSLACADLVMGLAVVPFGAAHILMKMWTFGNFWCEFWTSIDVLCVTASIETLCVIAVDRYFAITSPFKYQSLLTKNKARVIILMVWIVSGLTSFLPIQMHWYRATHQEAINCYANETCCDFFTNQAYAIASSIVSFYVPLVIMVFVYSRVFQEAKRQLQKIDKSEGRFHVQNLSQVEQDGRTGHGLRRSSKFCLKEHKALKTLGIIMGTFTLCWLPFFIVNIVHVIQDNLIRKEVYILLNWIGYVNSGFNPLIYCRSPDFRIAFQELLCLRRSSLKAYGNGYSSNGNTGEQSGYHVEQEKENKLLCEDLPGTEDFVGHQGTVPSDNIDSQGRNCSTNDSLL
Chain of Galanin GAL1 (h) (P47211 whole entry, looked up): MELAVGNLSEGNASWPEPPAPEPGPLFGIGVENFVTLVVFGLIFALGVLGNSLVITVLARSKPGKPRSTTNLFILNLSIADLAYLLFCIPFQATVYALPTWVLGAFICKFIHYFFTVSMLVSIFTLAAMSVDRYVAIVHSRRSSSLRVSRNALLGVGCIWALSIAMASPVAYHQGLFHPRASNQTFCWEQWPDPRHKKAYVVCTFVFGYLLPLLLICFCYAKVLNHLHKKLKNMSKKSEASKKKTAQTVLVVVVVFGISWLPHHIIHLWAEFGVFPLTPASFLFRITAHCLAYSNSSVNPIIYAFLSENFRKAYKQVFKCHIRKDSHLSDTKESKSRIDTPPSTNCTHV
Chain of Histamine H1 (h) (P35367 whole entry, looked up): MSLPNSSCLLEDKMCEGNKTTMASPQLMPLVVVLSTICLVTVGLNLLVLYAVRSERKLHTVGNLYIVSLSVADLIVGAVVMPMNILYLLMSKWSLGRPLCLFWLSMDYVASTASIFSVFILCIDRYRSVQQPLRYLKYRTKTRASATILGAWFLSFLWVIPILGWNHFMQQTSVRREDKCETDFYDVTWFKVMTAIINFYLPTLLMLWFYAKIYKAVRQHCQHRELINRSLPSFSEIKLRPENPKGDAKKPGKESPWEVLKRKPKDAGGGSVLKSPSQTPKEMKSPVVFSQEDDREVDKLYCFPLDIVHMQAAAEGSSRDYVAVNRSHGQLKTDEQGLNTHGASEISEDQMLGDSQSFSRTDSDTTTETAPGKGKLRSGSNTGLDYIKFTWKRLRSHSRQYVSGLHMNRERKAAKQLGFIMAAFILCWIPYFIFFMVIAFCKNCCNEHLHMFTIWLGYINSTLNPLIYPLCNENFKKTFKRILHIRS
Chain of Cholecystokinin CCK1 (CCKA) (h) (P32238 whole entry, looked up): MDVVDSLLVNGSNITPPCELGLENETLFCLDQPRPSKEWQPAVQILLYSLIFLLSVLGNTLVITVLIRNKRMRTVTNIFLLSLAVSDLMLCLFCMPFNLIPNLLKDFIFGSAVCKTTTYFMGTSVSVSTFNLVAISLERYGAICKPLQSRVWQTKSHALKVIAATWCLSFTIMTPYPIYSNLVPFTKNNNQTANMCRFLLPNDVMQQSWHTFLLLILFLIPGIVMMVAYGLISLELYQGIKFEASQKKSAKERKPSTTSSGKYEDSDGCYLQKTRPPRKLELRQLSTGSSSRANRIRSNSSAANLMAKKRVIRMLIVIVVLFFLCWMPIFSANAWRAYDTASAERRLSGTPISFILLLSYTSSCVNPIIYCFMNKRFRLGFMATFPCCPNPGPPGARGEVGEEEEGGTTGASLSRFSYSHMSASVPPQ
Chain of Melatonin MT1 (h) (P48039 whole entry, looked up): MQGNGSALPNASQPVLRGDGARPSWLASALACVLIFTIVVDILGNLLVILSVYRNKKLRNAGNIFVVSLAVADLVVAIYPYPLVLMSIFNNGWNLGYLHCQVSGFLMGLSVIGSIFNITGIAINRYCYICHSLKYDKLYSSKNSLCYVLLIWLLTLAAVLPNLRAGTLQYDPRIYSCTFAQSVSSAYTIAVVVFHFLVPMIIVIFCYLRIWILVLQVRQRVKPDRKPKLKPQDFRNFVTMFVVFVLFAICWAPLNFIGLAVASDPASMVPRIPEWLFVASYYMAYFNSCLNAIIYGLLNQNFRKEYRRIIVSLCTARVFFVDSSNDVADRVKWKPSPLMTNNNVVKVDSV
Chain of Prostacyclin IP (PGI2) (h) (P43119 whole entry, looked up): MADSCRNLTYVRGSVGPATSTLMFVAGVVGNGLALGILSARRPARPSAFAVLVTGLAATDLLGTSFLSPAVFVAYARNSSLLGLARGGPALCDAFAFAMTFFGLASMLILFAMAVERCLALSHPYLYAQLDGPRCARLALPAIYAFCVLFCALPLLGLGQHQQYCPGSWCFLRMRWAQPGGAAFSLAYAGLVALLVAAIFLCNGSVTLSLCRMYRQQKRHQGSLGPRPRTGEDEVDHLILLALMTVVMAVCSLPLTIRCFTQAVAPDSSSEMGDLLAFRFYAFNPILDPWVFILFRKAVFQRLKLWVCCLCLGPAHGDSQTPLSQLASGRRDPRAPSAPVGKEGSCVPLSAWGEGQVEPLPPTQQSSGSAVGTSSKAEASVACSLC
Chain of Vasopressin V1a (h) (P37288 whole entry, looked up): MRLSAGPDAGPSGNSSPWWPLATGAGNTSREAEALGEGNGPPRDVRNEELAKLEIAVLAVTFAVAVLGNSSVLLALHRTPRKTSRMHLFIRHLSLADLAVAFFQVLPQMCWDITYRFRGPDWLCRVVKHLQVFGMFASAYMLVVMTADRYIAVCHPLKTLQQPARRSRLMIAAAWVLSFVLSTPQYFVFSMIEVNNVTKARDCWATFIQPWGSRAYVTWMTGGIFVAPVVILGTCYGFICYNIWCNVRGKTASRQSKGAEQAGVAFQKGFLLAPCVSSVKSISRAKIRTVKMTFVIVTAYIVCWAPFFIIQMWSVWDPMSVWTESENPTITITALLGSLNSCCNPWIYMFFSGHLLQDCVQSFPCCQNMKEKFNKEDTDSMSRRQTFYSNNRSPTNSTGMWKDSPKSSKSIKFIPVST
Chain of Calcitonin Gene-Related Peptide CGRP1 (h) (Q16602 whole entry, looked up): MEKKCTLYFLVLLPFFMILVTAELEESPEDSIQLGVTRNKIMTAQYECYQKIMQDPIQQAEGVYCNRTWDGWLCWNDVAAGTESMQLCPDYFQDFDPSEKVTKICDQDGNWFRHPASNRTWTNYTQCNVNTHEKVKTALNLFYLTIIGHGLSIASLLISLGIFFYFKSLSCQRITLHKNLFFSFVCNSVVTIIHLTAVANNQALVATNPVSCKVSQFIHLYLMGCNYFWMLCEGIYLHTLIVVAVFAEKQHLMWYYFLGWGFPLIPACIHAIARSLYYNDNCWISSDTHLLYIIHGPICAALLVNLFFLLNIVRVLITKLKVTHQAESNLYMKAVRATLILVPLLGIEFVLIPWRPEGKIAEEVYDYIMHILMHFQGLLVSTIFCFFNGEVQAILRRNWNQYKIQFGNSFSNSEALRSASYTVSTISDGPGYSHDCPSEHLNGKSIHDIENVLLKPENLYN
Chain of Calcitonin Gene-Related Peptide CGRP1 (h) (O60894 whole entry partner, looked up): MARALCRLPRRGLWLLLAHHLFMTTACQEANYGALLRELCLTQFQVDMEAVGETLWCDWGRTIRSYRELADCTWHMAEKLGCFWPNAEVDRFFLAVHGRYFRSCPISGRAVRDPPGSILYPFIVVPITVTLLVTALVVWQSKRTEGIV
Chain of Prostaglandin EP4 (h) (P35408 whole entry, looked up): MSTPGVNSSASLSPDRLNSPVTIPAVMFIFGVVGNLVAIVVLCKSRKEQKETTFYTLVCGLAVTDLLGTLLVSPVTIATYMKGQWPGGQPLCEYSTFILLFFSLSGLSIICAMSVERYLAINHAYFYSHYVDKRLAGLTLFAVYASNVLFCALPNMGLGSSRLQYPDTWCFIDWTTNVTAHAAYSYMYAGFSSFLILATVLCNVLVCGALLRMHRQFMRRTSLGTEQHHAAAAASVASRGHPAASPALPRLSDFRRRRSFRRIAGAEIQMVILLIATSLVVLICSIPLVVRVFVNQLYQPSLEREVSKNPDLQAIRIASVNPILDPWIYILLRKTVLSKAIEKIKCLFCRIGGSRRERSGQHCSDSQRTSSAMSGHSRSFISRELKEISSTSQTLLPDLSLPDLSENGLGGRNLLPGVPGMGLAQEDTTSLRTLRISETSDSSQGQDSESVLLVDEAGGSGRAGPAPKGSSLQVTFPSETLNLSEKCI
Chain of Tachykinin NK2 (h) (P21452 whole entry, looked up): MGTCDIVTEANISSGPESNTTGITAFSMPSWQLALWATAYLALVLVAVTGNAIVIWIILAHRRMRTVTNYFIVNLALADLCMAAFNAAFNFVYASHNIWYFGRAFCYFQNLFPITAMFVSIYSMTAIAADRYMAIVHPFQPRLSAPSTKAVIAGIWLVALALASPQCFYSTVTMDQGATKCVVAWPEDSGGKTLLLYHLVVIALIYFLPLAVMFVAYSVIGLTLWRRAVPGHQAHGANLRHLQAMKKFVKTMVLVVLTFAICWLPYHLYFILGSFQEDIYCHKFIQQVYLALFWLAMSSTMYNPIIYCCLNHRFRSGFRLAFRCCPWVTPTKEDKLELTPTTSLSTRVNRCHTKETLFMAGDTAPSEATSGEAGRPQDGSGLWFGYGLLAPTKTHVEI

## COc1cc(CC(C)N)c(OC)cc1I (racemic) [DOI, (±)-2,5-dimethoxy-4-iodoamphetamine, reference compound]
Human 5-HT2B receptor
  EC50: 0.016 µM
  Emax: ~98%
Muscarinic M1 (h)
  inhibition at 10 µM: 71.8%
Muscarinic M4 (h)
  inhibition at 10 µM: 75.7%
Muscarinic M5 (h)
  inhibition at 10 µM: 62.6%
[1]
  inhibition at 10 µM: 53.5% inhibition at 10 μM
Dopamine D1 (h); read-out: binding at 10 μM
  inhibition at 10 µM: < 50%
Adrenergic β2 (h)
  inhibition at 10 µM: ≥ 80%
Histamine H1 (h); [9]
  inhibition at 10 µM: 64.6%
5-HT3 (h)
  inhibition at 10 µM: < 50%
Adenosine A3 (h)
  inhibition at 10 µM: < 50%
α1 (non-selective) (r)
  binding at 10 μM: NB (inhibited less than 50% of radioligand bound to them, and therefore it can be concluded they do not bind (“no binding,” NB))
[2]
  binding at 10 μM: NB (inhibited less than 50% of radioligand bound to them, and therefore it can be concluded they do not bind (“no binding,” NB))
B2 (h)
  inhibition at 10 µM: < 50%
[3]
  inhibition at 10 µM: < 50%
Cannabinoid CB1 (h); read-out: binding at 10 μM
  inhibition at 10 µM: < 50%
Cannabinoid CB1 (h); [10]
  inhibition at 10 µM: < 50%
[4]
  inhibition at 10 µM: < 50%
D5 (h)
  inhibition at 10 µM: < 50%
Galanin GAL1 (h)
  inhibition at 10 µM: < 50%
[5]
  inhibition at 10 µM: < 50%
Histamine H2 (h)
  inhibition at 10 µM: < 50%
Melatonin MT1 (h)
  inhibition at 10 µM: < 50%
Tachykinin NK1 (h)
  inhibition at 10 µM: < 50%
Tachykinin NK2 (h)
  inhibition at 10 µM: < 50%
Neuropeptide Y Y1 (h)
  inhibition at 10 µM: < 50%
Prostaglandin EP4 (h)
  inhibition at 10 µM: < 50%
[6]
  inhibition at 10 µM: < 50%
[7]
  binding at 10 μM: NB (inhibited less than 50% of radioligand bound to them, and therefore it can be concluded they do not bind (“no binding,” NB))
Vasopressin V1a (h)
  inhibition at 10 µM: < 50%
[8]
  inhibition at 10 µM: < 50%
Dopamine transporter (h)
  inhibition at 10 µM: < 50%

## COc1cc(SC(F)(F)F)c(OC)cc1CCN [Compound I-1, 2-(2,5-dimethoxy-4-((trifluoromethyl)thio)phenyl)ethan-1-amine]
Human 5-HT2B receptor
  EC50: 0.088 µM
  Emax: ~84%
Muscarinic M1 (h)
  inhibition at 10 µM: > 80%
Muscarinic M4 (h)
  inhibition at 10 µM: > 80%
Muscarinic M5 (h)
  inhibition at 10 µM: > 80%
[1]
  inhibition at 10 µM: 68.4% inhibition at 10 μM
Dopamine D1 (h); [9]
  inhibition at 10 µM: 57%
Adrenergic β2 (h)
  inhibition at 10 µM: 52.2%
Histamine H1 (h); read-out: binding at 10 μM
  inhibition at 10 µM: < 50%
5-HT3 (h)
  inhibition at 10 µM: < 50%
Adenosine A3 (h)
  inhibition at 10 µM: < 50%
α1 (non-selective) (r)
  binding at 10 μM: NB (inhibited less than 50% of radioligand bound to them, and therefore it can be concluded they do not bind (“no binding,” NB))
[2]
  binding at 10 μM: NB (inhibited less than 50% of radioligand bound to them, and therefore it can be concluded they do not bind (“no binding,” NB))
B2 (h)
  inhibition at 10 µM: < 50%
[3]
  inhibition at 10 µM: < 50%
Cannabinoid CB1 (h); read-out: binding at 10 μM
  inhibition at 10 µM: < 50%
Cannabinoid CB1 (h); [10]
  inhibition at 10 µM: < 50%
[4]
  inhibition at 10 µM: < 50%
D5 (h)
  inhibition at 10 µM: < 50%
Galanin GAL1 (h)
  inhibition at 10 µM: < 50%
[5]
  inhibition at 10 µM: < 50%
Histamine H2 (h)
  inhibition at 10 µM: < 50%
Melatonin MT1 (h)
  inhibition at 10 µM: < 50%
Tachykinin NK1 (h)
  inhibition at 10 µM: < 50%
Tachykinin NK2 (h)
  inhibition at 10 µM: < 50%
Neuropeptide Y Y1 (h)
  inhibition at 10 µM: < 50%
Prostaglandin EP4 (h)
  inhibition at 10 µM: < 50%
[6]
  inhibition at 10 µM: < 50%
[7]
  binding at 10 μM: NB (inhibited less than 50% of radioligand bound to them, and therefore it can be concluded they do not bind (“no binding,” NB))
Vasopressin V1a (h)
  inhibition at 10 µM: < 50%
[8]
  inhibition at 10 µM: < 50%
Dopamine transporter (h)
  inhibition at 10 µM: < 50%
